Test results: US11851449B2, “Heterocyclic amide compounds having an RORvt inhibitory action” (TAKEDA PHARMACEUTICAL COMPANY LIMITED, priority 2013, dated 2023)
Where two headings read alike, the source gives them in different places.

Key:
[1] = test system: IL-17A gene expression; assay: Effect on IL-23-induced IL-17A gene expression in mice; format: in vivo; conditions: Balb/c mice, ear tissue 24 hr after intradermal IL-23; 100 mg/kg orally 30 min before and 8 hr after IL-23; versus the negative control group
Procedure: Effect on IL-23-Induced IL-17A Gene Expression in Mice
A mouse IL-23 solution (500 ng/10 μL, prepared by Takeda Pharmaceutical Company Limited) or PBS (10 μL, negative control group) was administered intradermally in the ear of Balb/c mice (Charles River Japan, male, 7 weeks old). Twenty-four hr after administration, the ear was resected under isoflurane anesthesia. The test compound was suspended in 0.5% methylcellulose and administered orally 30 min before and 8 hr after IL-23 administration.
RNA extraction from the ear tissue and quantitative PCR were performed as follows. Specifically, ear tissue 5 mm in diameter was punched from an area of the resected ear centering on the IL-23 injection site, and the tissue was immersed in RNAlater (QIAGEN) for at least 18 hr. The RNAlater-treated ear tissue was homogenized in 350 μL of RLT buffer (RNeasy mini kit, QIAGEN) and treated (55° C., 10 min) with Proteinase K (QIAGEN). Total RNA was then extracted according to the RNeasy mini kit protocol. The RNA thus obtained was then reverse transcribed into cDNA using the High-Capacity RNA-to-cDNA kit (Applied Biosystems), and the amount of each cytokine expressions was measured by real-time PCR (Viia7™, Applied Biosystems). The PCR buffer used was TaqMan Fast Advanced Master Mix (Applied Biosystems), and TaqMan Gene Expression Assays (Applied Biosystems) Mm00439618 m1 (IL-17A) and 4352341E (β-actin) were used for cytokine gene detection. The IL-17A gene expression level was normalized to the β-actin gene expression level, and the percent inhibition of IL-17A gene expression with the test compound was then calculated.
The results obtained with the above-described method (percent inhibition of IL-17A gene expression with oral administration of the test compound) are shown in Table 3.

[2] = test system: mouse model of IL-23-induced psoriasis; assay: Effect in a mouse model of IL-23-induced psoriasis; format: in vivo; conditions: Balb/c mice, 100 mg/kg orally twice daily, versus the negative control group
Procedure: Effect in a Mouse Model of IL-23-Induced Psoriasis
Mouse IL-23 (500 ng/15 μL, R&D) or PBS (15 μL, negative control group) was administered intradermally in the ear of Balb/c mice (Charles River Japan, male, 7 weeks old) 5 times every other days. Seven hr after IL-23 administration at 8 days after the initial administration (final administration), the mice were anesthetized with isoflurane, and ear thickness was measured with calipers. After the ear thickness was measured, the ear was resected, the tissue 8 mm in diameter was punched from an area centering on the IL-23 injection site, and the tissue was weighed. […]
The change in ear thickness in this model was evaluated by calculating the difference in measured thickness between before IL-23 administration and 7 hr after the final IL-23 administration.
The amount of IL-17 in the ear tissue was performed as follows. […] The homogenized solution was centrifuged, and the amount of IL-17 in the supernatant was measured using ELISA kit (R&D), and the amount of protein in the supernatant was measured using pierce BCA protein assay kit (Thermo scientific). The amount of IL-17 in each ear tissue was normalized to the amount of protein, and the percent inhibition of IL-17A production with the test compound was then calculated. […]

[3] = molecular target: T1, RORγt (Homo sapiens, UniProt P51449); assay: Jurkat reporter test (human IL-17 ROR response element luciferase reporter); format: cell-based; conditions: read-out: luminescence level inhibitory rate (%) at test compound 3 μM
T1 sequence (P51449 1-497 isoform P51449-2): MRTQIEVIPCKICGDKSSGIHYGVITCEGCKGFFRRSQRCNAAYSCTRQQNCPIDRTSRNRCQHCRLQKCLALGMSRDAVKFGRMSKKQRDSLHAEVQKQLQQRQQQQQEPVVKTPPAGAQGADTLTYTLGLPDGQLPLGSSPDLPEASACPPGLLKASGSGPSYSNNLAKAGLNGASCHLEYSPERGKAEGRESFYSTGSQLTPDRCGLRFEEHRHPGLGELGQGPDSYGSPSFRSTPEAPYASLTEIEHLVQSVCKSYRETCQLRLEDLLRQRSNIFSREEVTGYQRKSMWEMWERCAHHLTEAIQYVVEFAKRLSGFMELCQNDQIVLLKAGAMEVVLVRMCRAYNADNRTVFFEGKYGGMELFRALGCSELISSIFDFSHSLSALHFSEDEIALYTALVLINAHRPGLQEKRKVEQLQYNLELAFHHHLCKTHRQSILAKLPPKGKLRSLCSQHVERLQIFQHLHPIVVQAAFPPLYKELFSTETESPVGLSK
Outline: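 Luminescence (Bright-Glo, 10 min, RT) was measured after overnight compound treatment of electroporated Jurkat cells (1350 V, 10 ms interval, 3 pulses). The reaction medium was RPMI with 10% lipid-reduced FCS, 10 mM HEPES (pH 7.5) and 5 μM lovastatin.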

[4] = molecular target: T1, RORγt; assay: RORγt binding test (TR-FRET, fluorescent-labeled cholesterol); conditions: read-out: binding inhibitory rate (%) of fluorescent-labeled cholesterol to RORγt at test compound 1 μM
Outline: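 His-tagged RORγt and BODIPY-cholesterol were incubated with compound for 20 min at room temperature in Tris-HCl pH 7.5, 100 mM NaCl, 1 mM DTT and 0.1% BSA. Terbium anti-His antibody was then added for a further 20 min.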

[5] = molecular target: T1, RORγt; assay: Cofactor recruitment test (Alpha Screen, biotinylated SRC-1 peptide); format: biochemical; conditions: read-out: signal value inhibitory rate (%) at test compound 1 μM
Procedure: Cofactor Recruitment Test
Cofactor recruitment test was performed by Alpha Screen (Histidine Detection Kit, PerkinElmer) method. First, a test compound was diluted with an assay buffer (50 mM Tris-HCl (pH 7.5), 50 mM KCl, 1 mM DTT, 0.1% BSA) and added to a 384 well plate by 5 μL. […] The mixture was stood in a dark place for 1 hr, and the signal value was measured by Envision (PerkinElmer).

inhibition at 3 µM ([3]; test compound 3 μM, Jurkat cells) [%] | Compound | percent inhibition of IL-17A gene expression [1] [%] | percent inhibition of ear thickness ([2]; IL-23 intradermally in the ear 5 times every other day) [%] | percent inhibition of IL-17 production ([2]; ear tissue, ELISA normalized to protein) [%] | inhibition at 3 µM ([3]; Jurkat) [%] | inhibition at 1 µM [4] [%] | inhibition at 1 µM [5] [%]
– | COc1ccc([C@H](C(=O)Nc2cc(F)c([Si](C)(C)C)c(F)c2)N(C)C(=O)c2cc(O)no2)cc1 [Example 23, N-((1R)-2-((3,5-difluoro-4-(trimethylsilyl)phenyl)amino)-1-(4-methoxyphenyl)-2-oxoethyl)-3-hydroxy-N-methyl-1,2-oxazole-5-carboxamide] | 71 | – | – | – | – | –
– | COc1ccc([C@H](C(=O)Nc2ccc([Si](C)(C)C)c(F)c2)N(C)C(=O)c2cc(O)no2)cc1 [Example 24, N-((1R)-2-((3-fluoro-4-(trimethylsilyl)phenyl)amino)-1-(4-methoxyphenyl)-2-oxoethyl)-3-hydroxy-N-methyl-1,2-oxazole-5-carboxamide] | 65 | 76 | 96 | 100 | 102 | 95.3
– | COc1ccc([C@H](C(=O)Nc2ccc([Si](C)(C)C)cc2)N(C)C(=O)c2cc(O)no2)cc1 [Example 14, 3-hydroxy-N-((1R)-1-(4-methoxyphenyl)-2-oxo-2-((4-(trimethylsilyl)phenyl)amino)ethyl)-N-methyl-1,2-oxazole-5-carboxamide] | 53 | – | – | – | – | –
99.8 | COCc1ccc([C@@H](NC(=O)Cc2cc(O)no2)C(=O)Nc2ccc(C(C)(C)C)c(F)c2)cc1 [Example 106, (2R)—N-(4-tert-butyl-3-fluorophenyl)-2-(((3-hydroxy-1,2-oxazol-5-yl)acetyl)amino)-2-(4-(methoxymethyl)phenyl)acetamide] | 43 | – | – | – | 103 | 88
– | COCc1ccc([C@@H](NC(=O)Cn2cnccc2=O)C(=O)Nc2ccc([Si](C)(C)C)c(F)c2)cc1 [Example 53, (2R)—N-(3-fluoro-4-(trimethylsilyl)phenyl)-2-(4-(methoxymethyl)phenyl)-2-(((6-oxopyrimidin-1(6H)-yl)acetyl)amino)acetamide] | – | – | – | 98.4 | 102 | 97.8
– | COCc1ccc([C@@H](NC(=O)CC(F)(F)F)C(=O)Nc2ccc([Si](C)(C)C)c(F)c2)cc1 [Example 93, 3,3,3-trifluoro-N-((1R)-2-((3-fluoro-4-(trimethylsilyl)phenyl)amino)-1-(4-(methoxymethyl)phenyl)-2-oxoethyl)propanamide] | – | – | – | 99.1 | 102 | 92.3
– | COCc1ccc(C(NC(=O)Cn2cnccc2=O)C(=O)Nc2cc(F)c([Si](C)(C)C)cc2F)cc1 (stereo not drawn) [Example 45, N-(2,5-difluoro-4-(trimethylsilyl)phenyl)-2-(4-(methoxymethyl)phenyl)-2-(((6-oxopyrimidin-1(6H)-yl)acetyl)amino)acetamide] | – | – | – | 101 | 102 | 94.1
– | COCc1ccc([C@@H](NC(=O)N2CC[C@@H](O)C2)C(=O)Nc2ccc([Si](C)(C)C)c(F)c2)cc1 [Example 66, (3R)—N-((1R)-2-((3-fluoro-4-(trimethylsilyl)phenyl)amino)-1-(4-(methoxymethyl)phenyl)-2-oxoethyl)-3-hydroxypyrrolidine-1-carboxamide] | – | – | – | 98.5 | 103 | 94.6
